Laboratory results taken from ChEMBL document CHEMBL3045028, “Synthesis, AntiBacteriol, and Antifungal Activities of Some New Benzimidazoles” (1992).
Active and inactive are the calls of the source. The rule behind the calls is not given here.

Assays:
Assay type in all cases: functional
Alternaria alternata = experiment: In vivo antifungal activity against Alternaria tenuis; parameters: concentration or dose not given beside the values
[1] = system: Agrobacterium tumefaciens; experiment: In vivo antibacterial activity against Agrobacterium tumefaciens infected carrots assessed as effective at 0.01%
[2] = system: Xanthomonas campestris pv. campestris; experiment: In vitro antibacterial activity against Xanthomonas campestris pv. campestris KF2 assessed as inhibition at 0.1 %
[3] = system: Xanthomonas euvesicatoria; experiment: In vitro antibacterial activity against Xanthomonas euvesicatoria P-2092 assessed as inhibition at 0.1 %
Agrobacterium sp. = experiment: In vitro antibacterial activity against Agrobacterium radiobacter pv. tumefaciens assessed as inhibition at 0.1 %
Botrytis cinerea = experiment: In vitro antifungal activity against Botryotinia fuckeliana assessed as inhibition at 0.1 %
[4] = system: Xanthomonas phaseoli pv. phaseoli; experiment: In vitro antibacterial activity against Xanthomonas campestris pv. phaseoli assessed as inhibition at 0.1 %
[5] = system: Pseudomonas savastanoi pv. phaseolicola; experiment: In vitro antibacterial activity against Pseudomonas syringae pv. phaseolicola E81 assessed as inhibition at 0.1 %
Pseudomonas viridiflava = experiment: In vitro antibacterial activity against Pseudomonas viridiflava 8 assessed as inhibition at 0.1 %
[6] = system: Pseudomonas savastanoi pv. glycinea; experiment: In vitro antibacterial activity against Pseudomonas syringae pv. glycinea S1 assessed as inhibition at 0.1 %

| SMILES | Efficacy (Alternaria alternata) [%] | Efficacy [1] [%] | diameter of the inhibition zone (DIZ) [2] [cm] | diameter of the inhibition zone (DIZ) [3] [cm] | diameter of the inhibition zone (DIZ) (Agrobacterium sp.) [cm] | diameter of the inhibition zone (DIZ) (Botrytis cinerea) [cm] | inhibition [4] | diameter of the inhibition zone (DIZ) [5] [cm] | inhibition [3] | inhibition (Pseudomonas viridiflava) | diameter of the inhibition zone (DIZ) [6] [cm] | diameter of the inhibition zone (DIZ) [4] [cm] | inhibition [5] | diameter of the inhibition zone (DIZ) (Pseudomonas viridiflava) [cm] | inhibition (Botrytis cinerea) | inhibition [6] |
| --- | --- | --- | --- | --- | --- | --- | --- | --- | --- | --- | --- | --- | --- | --- | --- | --- |
| CCCCn1c(N)nc2ccccc21 | 50 | 30 | 3 | 3 | 3 | 3 |  |  |  |  |  |  |  |  |  |  |
| Cc1cc2ncn(Cc3cccc(F)c3)c2cc1C | 50 | 70 | 3 | 3 | 3 |  |  |  |  |  |  |  |  |  |  |  |
| Cc1cc2ncn(Cc3ccccc3Cl)c2cc1C | 50 |  | 1 |  |  | 1 | inactive | 1 | inactive | inactive | 1 |  |  |  |  |  |
| CCCCn1c(N)nc2cc(C)c(C)cc21 | 100 |  | 2 | 2 | 3 |  |  |  |  |  |  |  |  |  |  |  |
| Nc1nc2ccccc2n1Cc1cccc(Cl)c1 | 50 |  | 3 | 3 |  |  |  |  |  |  | 2 | 3 | inactive | 3 | inactive |  |
| COc1cccc(Cn2c(N)nc3ccccc32)c1 | 100 |  | 3 | 3 | 3 |  |  |  |  |  |  |  |  |  |  |  |
| COc1cccc(Cn2c(N)nc3cc(C)c(C)cc32)c1 | 100 |  |  |  |  |  |  |  |  |  |  |  |  |  |  |  |
| Cc1cccc(Cn2c(N)nc3ccccc32)c1 | 100 |  | 3 | 3 | 2 |  |  |  |  |  |  |  |  |  |  |  |
| Cc1cc2nc(/N=C/c3ccc([N+](=O)[O-])o3)n(Cc3ccc(Cl)cc3)c2cc1C |  | 70 | 1 | 1 |  | 3 |  | 2 |  |  | 2 | 3 |  | 1 |  |  |
| Cc1cc2ncn(Cc3ccc(Cl)cc3)c2cc1C |  | 30 | 1 | 1 |  |  | inactive |  |  | inactive |  |  | inactive |  | inactive | inactive |
